Assay results reported in the NIST ThermoML archive (doi:10.1007/s10765-019-2484-6).

Assay: xn = mol fraction of the nth substance listed
Details: Gas, Loschmidt cell combined with holographic interferometry

CCC [propane] + O=C=O
Details	binary diffusion coefficient [m2/s]
293.24 K, 50 kPa, x1 = 0.5	1.89e-05
293.25 K, 100 kPa, x1 = 0.1665	8.54e-06
293.25 K, 200 kPa, x1 = 0.1665	4.14e-06
293.27 K, 100 kPa, x1 = 0.333	8.31e-06
293.27 K, 100 kPa, x1 = 0.833	8.29e-06
293.27 K, 500 kPa, x1 = 0.1665	1.59e-06
293.28 K, 200 kPa, x1 = 0.333	4.12e-06
293.28 K, 200 kPa, x1 = 0.833	4.06e-06
293.3 K, 500 kPa, x1 = 0.333	1.71e-06
293.31 K, 200 kPa, x1 = 0.4995	4.12e-06
293.32 K, 100 kPa, x1 = 0.4995	8.23e-06
293.32 K, 500 kPa, x1 = 0.833	1.51e-06
293.33 K, 200 kPa, x1 = 0.6665	4.06e-06
293.33 K, 500 kPa, x1 = 0.4995	1.49e-06
293.36 K, 100 kPa, x1 = 0.6665	8.25e-06
293.37 K, 200 kPa, x1 = 0.5	4.06e-06
293.39 K, 500 kPa, x1 = 0.5	1.54e-06
293.41 K, 500 kPa, x1 = 0.6665	1.52e-06
293.47 K, 100 kPa, x1 = 0.5	8.23e-06
313.21 K, 200 kPa, x1 = 0.333	4.88e-06
313.21 K, 500 kPa, x1 = 0.5	1.77e-06
313.22 K, 200 kPa, x1 = 0.5	4.77e-06
313.23 K, 100 kPa, x1 = 0.6665	9.67e-06
313.23 K, 200 kPa, x1 = 0.833	4.77e-06
313.25 K, 100 kPa, x1 = 0.833	9.53e-06
313.26 K, 100 kPa, x1 = 0.333	9.71e-06
313.26 K, 200 kPa, x1 = 0.6665	4.79e-06
313.27 K, 500 kPa, x1 = 0.333	1.94e-06
313.27 K, 500 kPa, x1 = 0.6665	1.85e-06
313.27 K, 500 kPa, x1 = 0.833	1.86e-06
313.28 K, 100 kPa, x1 = 0.1665	9.79e-06
313.28 K, 200 kPa, x1 = 0.1665	4.8e-06
313.29 K, 200 kPa, x1 = 0.4995	4.8e-06
313.31 K, 500 kPa, x1 = 0.1665	1.95e-06
313.32 K, 100 kPa, x1 = 0.4995	9.71e-06

C [methane] + CCC
Details	binary diffusion coefficient [m2/s]
293.09 K, 500 kPa, x2 = 0.659	2.12e-06
293.12 K, 500 kPa, x2 = 0.3331	2.19e-06
293.12 K, 500 kPa, x2 = 0.492	2.07e-06
293.13 K, 500 kPa, x2 = 0.833	1.97e-06
293.16 K, 500 kPa, x2 = 0.5	2.19e-06
293.18 K, 500 kPa, x2 = 0.159	2.36e-06
293.19 K, 50 kPa, x2 = 0.5	2.36e-06
293.21 K, 200 kPa, x2 = 0.5	5.78e-06
293.29 K, 100 kPa, x2 = 0.5	1.18e-05
293.31 K, 100 kPa, x2 = 0.4973	1.21e-05
293.31 K, 100 kPa, x2 = 0.6665	1.18e-05
293.31 K, 200 kPa, x2 = 0.6665	5.81e-06
293.32 K, 100 kPa, x2 = 0.159	1.24e-05
293.32 K, 100 kPa, x2 = 0.3335	1.18e-05
293.33 K, 100 kPa, x2 = 0.833	1.18e-05
293.33 K, 200 kPa, x2 = 0.159	6.16e-06
293.33 K, 200 kPa, x2 = 0.3335	5.7e-06
293.33 K, 200 kPa, x2 = 0.833	5.77e-06
293.34 K, 200 kPa, x2 = 0.498	5.81e-06
313.28 K, 500 kPa, x2 = 0.4995	2.71e-06
313.52 K, 500 kPa, x2 = 0.832	2.73e-06
313.54 K, 500 kPa, x2 = 0.1665	2.8e-06
313.55 K, 100 kPa, x2 = 0.8295	1.37e-05
313.55 K, 500 kPa, x2 = 0.332	2.79e-06
313.55 K, 500 kPa, x2 = 0.5	2.72e-06
313.56 K, 100 kPa, x2 = 0.3295	1.4e-05
313.56 K, 100 kPa, x2 = 0.4995	1.31e-05
313.57 K, 200 kPa, x2 = 0.4995	6.73e-06
313.57 K, 200 kPa, x2 = 0.6665	6.92e-06
313.58 K, 100 kPa, x2 = 0.159	1.52e-05
313.58 K, 200 kPa, x2 = 0.5	6.91e-06
313.59 K, 100 kPa, x2 = 0.5	1.38e-05
313.59 K, 200 kPa, x2 = 0.3295	6.98e-06
313.59 K, 500 kPa, x2 = 0.6665	2.76e-06
313.6 K, 100 kPa, x2 = 0.6665	1.4e-05
313.6 K, 200 kPa, x2 = 0.159	7.39e-06
313.61 K, 200 kPa, x2 = 0.8295	6.76e-06
